The source of these data is patent publication US20120100204A1, “TGF-Beta Stimulating Agent Compositions and Combinations” (TCP INNOVATIONS LTD, priority 2007, published 2012).

One data set deals with apoE-deficient mice. Nature of the data set: vascular lipid lesion formation at the aortic root, Oil Red O staining. Type of data set: in vivo. To be noted: for Intimal lipid lesion area / Intimal:media area ratio / Lipid lesion area / Total intimal area: Aspirin 30 mg/kg/day, mean ± SD; for reduction of vascular lipid lesion area: Tamoxifen 1 mg/kg/day p.o, vs control. The text has this:
Adult male apoE-deficient mice, back-crossed onto a C57B16 background for at least five generations, were randomised into groups of eight animals at 12 weeks of age, such that each group had similar average body weight. […] The amount of food eaten and the body weight of each mouse was monitored daily for the first week, and once per week thereafter. After 12 weeks of treatment, the mice were sacrificed by CO2 asphyxiation, and heart & lung blocks were excised, embedded in Cryo-M-bed (Bright Instruments, UK) without fixation and snap frozen in liquid nitrogen.
Sections were then prepared from the aortic root according to the Paigen Strategy (a defined sequence of cutting sections which allow reproducible comparison between animals; see for example Grainger et al. (1995) Nature Med. 1:1067-72 and the references therein). 4 μm crysosections were cut using a motordriven cryotome (Bright Instruments) and collected onto poly-L-lysine coated glass microscope slides, then fixed in ice-cold acetone for 90 secs, allowed to air dry and stored at −20° C. until analysed.
The extent of vascular lipid lesion formation was assessed by Oil Red O staining, with a Fast Green counterstain, a standard histological procedure well known in the art. Briefly, five sections (selected according to the Paigen strategy) from each animal were passed through graded alcohol solutions, then stained in Oil Red O for 12 minutes, washed several times and then counterstained by dipping in Fast Green for 5-10 secs, and then dip washed in several changes of clean water. After air drying, an appropriate mountant was applied (simple glycerol-based moutants are most appropriate for this task), followed by a coverslip using acrylic varnish surrounding the coverslip to hold it in place. Slides were then analysed using a simple inverted microscope (no phase contrast; 10× objective; Olympus AX series), fitted with a digital camera to capture images of the entire aortic wall. The images were subsequently processed, blind to the treatment status of the animal, using Openlab image analysis software (Improvision, UK) running on an Apple Macintosh computer. On each image, the user delineated the external elastic lamina, internal elastic lamina and the luminal surface of the vessel wall, and the software reported the total intimal area, the intimal:medial area ratio, the total neutral lipid area and the intimal lipid area. The values from each image were summed (except for intimal:media area ratio, which were averaged), and then the values from each slide were summed (or averaged, as above) to yield a value for each parameter for each animal. […]
Adult male apoE-deficient mice were treated, in groups of 8, with fish oil (Seven Seas, UK), aspirin or both agents simultaneously from 12 weeks of age until 24 weeks of age, exactly as described in Example 2.
Mice were sacrificed and heart & lung blocks prepared and processed exactly as described in Example 2. Sections were prepared in accordance with the Paigen Strategy, as in example 2. The extent of lipid lesion formation was assessed by Oil Red 0 staining with Fast Green counterstain, exactly as in example 2.

For another data set, the system named is tgfb3 mRNA. Kind of data set: tgfb3 mRNA level by quantitative PCR in human aortic vascular smooth muscle cells. Type of data set: cell-based. Particulars: 24 hrs. How it is done: (1995) Cardiovasc. Res. 29:848-55). […] The cells were then incubated for either 24 hrs or 72 hrs depending on the experiment. All treatment conditions were established in triplicate. The level of mRNA for tgfb1, tgfb2 and tgfb3 were estimated by quantitative PCR. The media was removed and RNA was carefully prepared using the Ambion RNAqueous4PCR kit (Ambion#1914) in accordance with the manufacturer's instructions. The purity of the RNA and the quantity was assessed spectrophotometrically. […] This analysis results in both a gel-like image as well as electrophoretic data. Indications of RNA degradation are: (a) decreasing ratio of ribosomal bands (b) additional peaks bellow the ribosomal bands (c) Decrease in overall RNA signal (d) shift towards shorter fragments. […] Next, the RNA was converted to cDNA using the ABI High-Capacity cDNA Archive Kit, in accordance with manufacturer's instructions. […] Samples were vortexed to ensure thorough mixing. cDNA was aliquoted into ABI 384 well plates using a multi-channel pipette, 4.5 μl of sample into each well. Samples were assayed in triplicate (that is, nine determinations in total were made for each condition, being three separate assays on each of three replicate culture wells). The assay mix and Universal Master Mix were prepared and aliquoted across the 384 well plates 5.5 μl in each well, using a single channel pipette. […] Universal Master Mix=5 μl; cDNA=4.5 μl. The plates were then heat sealed using Abgene clear seal strong plastic heat seals, and then cycled and scanned using the ABI 9700HT under the following conditions: 95° C. for 10 minutes to activate the AmpliTaq GOLD, then 40 cycles of: 95° C. for 15 sec (Denaturation), 60° C. for 60 […]). […] Quantitative PCR was performed using several primer/probe sets. […] We used both commercially available primer/probe sets (ABI Taqman pre-validated assays), using both available sets in the ABI database for tgfb1 and tgfb2, as well as the single available set for tgfb3. In addition, we used our own manual design probe/primer set for each of tgfb1, tgfb2 and tgfb3. […] In all quantitative PCR experiments, several additional controls were included: firstly, a control for each sample is run with no reverse transcription to ensure the mRNA sample is not contaminated with genomic DNA (although the manual design probe/primer sets were all selected to cross an exon/exon boundary, ensuring no detectable amplicon is produced from genomic DNA templates). […] Failure of either control led to the repeat of the entire experiment.

For a further data set, the system named is DBA/1 mice. Nature of the data set: collagen-induced arthritis, footpad thickness. It counts as in vivo. Particulars: from the booster injection onwards, Tamoxifen 1 mg/kg/day p.o, aspirin 30 mg/kg/day p.o. How it is done:
Collagen-induced arthritis was induced in adult male DBA/1 mice as previously described (Courtenay et al. (1980) Nature 283:666-8). Adult (12 week old) male DBA/1 mice were divided into groups of six animals. Mice received 100 μg per mouse of bovine type II collagen (Sigma) in Freunds Complete Adjuvant (FCA) by the subcutaneous route, while a control group received an identical injection of type I collagen in FCA. Twenty-one days later, all groups of mice received an intraperitoneal booster injection containing 100 μg per mouse of the same collagen type as previously, but in the absence of adjuvant. […] Foodpad thickness was determined each day using a digital caliper EC1507 (Moore & Wright) accurate to 0.01 mm. The thickness of each footpad was determined three times on each day by a single operator blind to the treatment condition of the mouse, and the footpad thickness of each mouse on each day was reported as the mean for the three measurements for all four paws. Errors represent the standard error of the mean among the six animals in each group.

The conditions of data set [1]: translated from the relative risk; cited from earlier work.
A short description of data set [2]: critical micelle concentration. Type of data set: physicochemical. Particulars: in the presence of 20% foetal calf serum.
The conditions of data set [3]: Tamoxifen treatment; cited from earlier work.
Setting [4] is: 12 to 24 weeks of age, Fish oils 100 mg/kg/day.
The mark [5] stands for this setting: 12 weeks in chow, TMX 1 mg/kg/day.

As to `CC(=O)Oc1ccccc1C(=O)O` [Aspirin, acetylsalicylic acid], in the data set with apoE-deficient mice (setting [4]), the “Intimal lipid lesion area” value was 31,006 ± 7,176 μm2, the “Intimal:media area ratio” value is given as 62 ± 9%, the Lipid lesion area is given as 35,860 ± 8,091 μm2 and the Total intimal area is recorded as 65,209 ± 6.712 μm2. Also, in the data set on apoE-deficient mice (setting [5]), the “Intimal lipid lesion area” value is 31,006 ± 7,176 μm^2, the “Intimal:media area ratio” value amounted to 62 ± 9%, the Lipid lesion area is on record as 35,860 ± 8,091 μm^2 and the Total intimal area is 65,209 ± 6,712 μm^2. Besides, the “effect on total intimal area and intimal:medial area ratio” value in the data set with apoE-deficient mice (Example 2) is reported as “did not affect”. In addition, in the data set on apoE-deficient mice (aspirin 30 mg/kg/day p.o), the “reduction of vascular lipid lesion area” value was determined as 6%. For the same compound, the “effect on any measure of vascular lipid lesion area or plaque size” value in the data set on apoE-deficient mice (administered separately, fish oil 100 mg/kg/day p.o, aspirin 30 mg/kg/day p.o) was “no statistically significant effect”. Also, the “Level of mRNA, estimated by qPCR: tgfb3” value with tgfb3 mRNA (10 μM A) is on record as 1.09 ± 0.08 fold-change. The “Level of mRNA, estimated by qPCR: tgfb3” value with tgfb3 mRNA (33 μM A) is recorded as 1.06 ± 0.13 fold-change. The “Level of mRNA, estimated by qPCR: tgfb3” value with tgfb3 mRNA (100 μM A) was 0.94 ± 0.09 fold-change.

Regarding `CC/C(=C(\c1ccccc1)c1ccc(OCCN(C)C)cc1)c1ccccc1` [Tamoxifen], in the data set with apoE-deficient mice (setting [5]), the “Intimal lipid lesion area” value is 9,393 ± 2,221 * μm^2, the Lipid lesion area is recorded as 10,794 ± 2,820 * μm^2 and the Total intimal area is recorded as 64,428 ± 4,294 μm^2. The “reduction of vascular lipid lesion area” value in the data set on apoE-deficient mice (aspirin 30 mg/kg/day p.o) came to 72%. In addition, the “reduction of the maximal collagen-II induced footpad swelling” value with DBA/1 mice was 36%. For the same compound, the “reduction in risk of death from myocardial infarction” value in data set [1] is reported as 33%. In data set [2], the critical micelle concentration entry is given as “approximately 50 μM”. Also, the “Level of mRNA, estimated by qPCR: tgfb3” value in the data set on tgfb3 mRNA (3.3 μM T) is 0.92 ± 0.16 fold-change. Besides, in the data set on tgfb3 mRNA (10 μM T), the “Level of mRNA, estimated by qPCR: tgfb3” value is on record as 1.19 ± 0.21 fold-change. Also, the “Level of mRNA, estimated by qPCR: tgfb3” value in the data set on tgfb3 mRNA (33 μM T) was 1.31 ± 0.11 fold-change. The “doses that significantly increased tgfb3 mRNA” value with tgfb3 mRNA was at least 10 µM. Also, the “endothelial function, a surrogate marker of atherosclerotic disease burden” value in data set [3] was “improved endothelial function”.
